{
  "source": "paper PMC12160547",
  "about": "“Identification of a Novel Small Molecule STING Agonist Reshaping the Immunomicroenvironment of Pancreatic Ductal Adenocarcinoma” (International Journal of Biological Sciences, 2025)",
  "key": {"[1]": {"tested_on": "pancreatic orthotopic tumor", "experiment": "Pancreatic orthotopic tumor model", "assay_type": "in vivo, C57BL/6 mice", "protocol": "For the pancreatic orthotopic tumor model, mice were anesthetized using […] (2,2,2-tribromoethanol) (Aladdin), and the pancreas was surgically exposed. Approximately 5 × 10^5 tumor cells suspended in 50 μL PBS were injected into the pancreas. The incision was then closed, and the mice were allowed to recover under close observation. On days 9, 12, and 15, the mice received intraperitoneal injections of three different concentrations of the drug. As with the subcutaneous model, the mice were euthanized on day 25, tumors were collected, weighed, and further analyzed. Additionally, at least 10 mice from each group were randomly selected to undergo the same treatments without euthanasia, and their survival times were recorded to generate survival curves.\nPancreatic orthotopic tumor models were established using mouse pancreatic tumor cell lines (Pan02-luc and KPC-luc). Mice were intraperitoneally injected with 200 µL of D-Luciferin working solution (15 mg/mL) (Yeasen) and continuously anesthetized with isoflurane. Ten minutes after injection, the intensity and distribution of luciferase luminescence were measured using the Tanon ABL-X5 in vivo imaging system. Tumor size was monitored weekly, with consistent exposure times and intensities for imaging.\n(§1) Multiplex cytokine detection was performed using Luminex cytokine bead array technology provided by WayenBio, Shanghai. In the mouse tumor model, levels of multiple cytokines were simultaneously measured and normalized to tumor weight. For the quantification of specific cytokines, such as IL-6 and IFN-β, enzyme-linked immunosorbent assay (ELISA) kits from Abclonal were used. The assays were conducted according to the manufacturer's instructions."}, "[2]": {"tested_on": "STING signaling", "experiment": "Relative gene expression in RAW-Lucia cells (RT-qPCR)", "assay_type": "cell-based, mouse", "protocol": "(§2) RNA from tumor tissues or cells was extracted using the SteadyPure Universal RNA Extraction Kit (Accurate Biology) and reverse transcribed into cDNA with the Evo M-MLV Reverse Transcription Kit (Accurate Biology). Relative RNA expression levels were quantified using 2X Universal SYBR Green Fast qPCR Mix (Abclonal), and the results were recorded on the qTOWER®3 84 Real-Time PCR system."}, "[3]": {"tested_on": "subcutaneous pancreatic tumor", "experiment": "Subcutaneous pancreatic tumor model", "assay_type": "in vivo, C57BL/6 mice", "protocol": "C57BL/6 mice were obtained from Phenotek (Shanghai) and randomly assigned to groups, with a minimum of six mice per group. For the subcutaneous tumor model, approximately 5 × 10^5 tumor cells were suspended in 150 μL PBS and injected into the left flank of the mice. Tumor size was measured every four days starting from day 7 post-injection. On days 9, 12, and 15, the mice were administered three different concentrations of the drug via peritumoral injection, while the Control group received only the solvent. The mice were euthanized on day 25, and tumors were excised, weighed, and further analyzed.\nas §1"}, "[4]": {"tested_on": "subcutaneous pancreatic tumor", "experiment": "CD45.1 T cell or BMDM transfer into CD45.2 tumor-bearing mice", "assay_type": "in vivo"}, "[5]": {"tested_on": "Panc-1 cell line", "experiment": "CCK8 and colony assay of Panc-1 cell line", "assay_type": "cell-based, human", "settings": "Panc-1, 10μM D166, CCK8 and colony assay", "text": "Western Blot showing cGAS-STING pathway protein expression of Panc-1 cell line\n(B) CCK8 of Panc-1 cell line when\n(C-D) Representative image (C) and statistic (D) of […]"}, "[6]": {"experiment": "Metabolite profiling in liver microsomes, 60 min incubation", "assay_type": "in vitro ADME, human", "settings": "D166 incubated 60 min; selected ion chromatographic peak areas"}, "[7]": {"tested_on": "pancreatic tumor organoids", "experiment": "Pancreatic tumor organoid viability (AO/PI staining, CellTiter-Glo 3D)", "assay_type": "cell-based, human", "text": "Pancreatic tumor organoids were derived from patients diagnosed with pancreatic ductal adenocarcinoma at Ruijin Hospital, affiliated with Shanghai Jiao Tong University School of Medicine. Inclusion criteria required a confirmed histopathological diagnosis of pancreatic ductal adenocarcinoma and the absence of prior neoadjuvant treatment. After obtaining informed consent from the patients, tumor tissues were excised during surgery and preserved in a tissue preservation solution (Absin). The tumor samples were promptly minced into small fragments in pre-chilled RPMI-1640 and digested for 20 minutes at 37°C using the Human Tumor Dissociation Kit (Miltenyi Biotec). The resulting single-cell suspension was filtered through a 100-µm mesh (Falcon) and seeded onto Matrigel (Corning). Following a 30-minute incubation at 37°C, OM12 (Omabio) complete organoid medium was added around the periphery of the Matrigel. The tissue-derived cells successfully grew in a three-dimensional format. The viability of the organoids was assessed using CellTiter-Glo® 3D Cell Viability Assay (Promega) reagents. […] Luminescence was subsequently measured using the BioTek Synergy LX multimode reader (Agilent). […] Acridine orange (AO) binds to the nuclei of all cells, emitting green fluorescence, while propidium iodide (PI) penetrates the cell membrane to stain dead cells red. […]"}, "[8]": {"experiment": "Metabolite profiling in liver microsomes, 60 min incubation", "assay_type": "in vitro ADME, rat", "settings": "D166 incubated 60 min; selected ion chromatographic peak areas"}, "[9]": {"tested_on": "cGAS-STING pathway", "experiment": "cGAS-STING pathway, IFN-β and ISG readout in pancreatic cancer organoids", "assay_type": "cell-based, human", "protocol": "Tumor tissues or cells were thoroughly lysed in RIPA buffer containing protease and phosphatase inhibitors. The lysates were then centrifuged to collect the supernatant. Proteins were separated by electrophoresis in MOPS buffer and subsequently transferred onto a PVDF membrane. After blocking, the membrane was sequentially incubated with the primary antibody, secondary antibody, and chemiluminescent substrate (ECL) for imaging.\nas §2, §1"}, "[10]": {"tested_on": "orthotopic PDAC microenvironment", "experiment": "Flow cytometry and scRNA-seq of orthotopic PDAC microenvironment", "assay_type": "in vivo, mice", "protocol": "Bulk RNA sequencing was performed by GenePlus (China) on pancreatic cancer organoids treated with 10 μM of […] or MSA-2, compared to a control group, with three biological replicates. The sequencing data are available for access and analysis via the provided website. Single-cell RNA sequencing (scRNA-seq) was conducted by NovelBio (China) on in situ mouse pancreatic tumors following tissue digestion. The resulting sequencing data were analyzed using R software. Mouse tumors were digested using the Mouse Tumor Dissociation Kit (Miltenyi Biotec) according to the manufacturer's protocol. The resulting single-cell suspension was filtered through a 70-micron mesh to ensure a homogeneous cell population. Cells were stained with fluorescently labeled antibodies for flow cytometry at 4°C on ice for 30 minutes. After washing off unbound antibodies, fluorescence was detected using a Beckman CytoFlex S flow cytometer. For co-cultured immune cells, separated T cells and macrophages were similarly stained with flow cytometry antibodies. For cytokine staining, cells were pre-stimulated with the eBioscienceTM Cell Stimulation Cocktail for 4 hours. For intracellular protein staining, after surface staining, cells were fixed and permeabilized using the BD Cytofix/CytopermTM Fixation/Permeabilization Kit, followed by staining for intracellular proteins. Flow cytometry data were analyzed using FlowJo 10 software."}, "[11]": {"settings": "CD45.1 bone marrow-derived macrophages transferred"}, "[12]": {"settings": "flow cytometry of tumor suspensions"}},
  "data": [
    {"compound": "[2H]C([2H])([2H])Oc1cc2cc(C(=O)CCC(=O)O)sc2cc1OC([2H])([2H])[2H]", "note": "[D166]", "values": [
      {"measurement": "cytokine levels in the TME, including IL-6, IFN-β, and TNF-α", "setting": "[1]; higher D166 doses, ELISA", "result": "elevated cytokine levels"},
      {"measurement": "inhibition of tumor proliferation, weekly in vivo imaging", "setting": "[1]; increasing D166 concentrations, compared with DMXAA", "result": "more potent effect than DMXAA"},
      {"measurement": "pancreatic tumor progression", "setting": "[1]; intraperitoneal injection at varying doses", "result": "significant dose-dependent inhibition"},
      {"measurement": "Relative expression (Cxcl10/actin)", "setting": "[2]", "result": "158.00 ± 2.91"},
      {"measurement": "IL-6, IFN-β, and TNF-α levels in the TME", "setting": "[3]; higher D166 doses, ELISA", "result": "increased"},
      {"measurement": "tumor growth", "setting": "[3]; peritumoral injection, different doses", "result": "significant dose-dependent inhibitory effect"},
      {"measurement": "antitumor efficacy compared with other STING agonists", "setting": "[3]; tumor weight, Figure S4A", "result": "comparable to that of other STING agonists"},
      {"measurement": "tumor progression", "setting": "[4]; CD45.1 T cells transferred, D166 concentration increased", "result": "slowed"},
      {"measurement": "expression of M1 macrophage markers (CD86 and iNOS) in CD45.1 macrophages", "setting": "[4]; [11]", "result": "increased"},
      {"measurement": "expression of M2 markers in CD45.1 macrophages", "setting": "[4]; [11]", "result": "decreased"},
      {"measurement": "IFNG, GZMB, and PDCD1 in the CD45.1 T cells", "setting": "[4]; sorted CD45.1 cells", "result": "significant upregulation"},
      {"measurement": "proliferation", "setting": "[5]", "result": "without affecting proliferation"},
      {"measurement": "Relative Peak Area Abundance (%) HLM", "setting": "[6]", "result": 98.5, "unit": "%"},
      {"measurement": "viability of pancreatic tumor organoids", "setting": "[7]; increased concentration of D166", "result": "decreased viability"},
      {"measurement": "inhibiting organoid viability compared with ADU-S100, MSA-2, SR-717, MK-1454 and DXMAA", "setting": "[7]; organoids, 10μM", "result": "better efficacy"},
      {"measurement": "Relative Peak Area Abundance (%) RLM", "setting": "[8]", "result": 97.7, "unit": "%"},
      {"measurement": "activating IFN-stimulated genes (ISGs) compared with ADU-S100, MSA-2, SR-717, MK-1454 and DXMAA", "setting": "[9]; organoids, 10μM", "result": "better efficacy"},
      {"measurement": "activation of the cGAS-STING pathway and induction of IFN-β", "setting": "[9]; pancreatic cancer organoids, different concentration and duration", "result": "time- and dose-dependent effect"},
      {"measurement": "proportion of ductal cells (including cancer cells) and fibroblasts", "setting": "[10]; 10 mg/kg D166, 10X single-cell sequencing", "result": "significant reduction"},
      {"measurement": "F4/80-positive macrophages among the myeloid cells", "setting": "[10]; [12]", "result": "significant increase"},
      {"measurement": "proportion of CD4+ and CD8+ T cells", "setting": "[10]; [12]", "result": "significantly increased"}
    ]}
  ]
}
